# System: SH-SY-5Y neuroblastoma cells
# Assay: Cell viability by MTT assay
# Type: cell-based
# Conditions: FIG. 4
# Description: SH-SY-5Y neuroblastoma cells were purchased from the Korean Cell Line Bank (Seoul, South Korea) and incubated in a 1:1 mixture of Dulbecco's modified eagle medium/F-12 nutrient mixture ham (DMEM/F-12; WelGENE) supplemented with 10% fetal bovine serum (FBS; Capricorn Scientific GmbH, Ebsdorfergrund, Germany) and 1% antibiotic (10,000 U/mL penicillin G, 10,000 μg/mL streptomycin and 25 μg/mL amphotericin B; Hyclone, Logan, UT, USA). The antibiotic was sterilized through a 0.2 μm filter before use and the cells were incubated at 37° C. under humid conditions including 5% CO2.
# Specifically, 15,000 cells were grown in each well of a 96-well plate and incubated for 24 hours. […] Then, the MTT solution was added to the medium and incubated at 37° C. for 3 hours to form the MTT-formazan product. The amount of the product was quantified as the extent of absorption at a wavelength of 540 nm.
# Each test was conducted on three samples at a time and the entire test was repeated three times to ensure reproducibility.
# Specifically, 15,000 cultured neuroblastoma were added with each of 1 uM of a monomer protein and 1 uM of a fibrous protein, and incubated for 2 days, and then the change in cytotoxicity was measured using MTT reagent.
smiles,measurement,value
CC[C@H](C)[C@H](NC(=O)[C@H](C)NC(=O)CNC(=O)[C@H](CCCCN)NC(=O)[C@H](CC(N)=O)NC(=O)[C@H](CO)NC(=O)CNC(=O)[C@@H](NC(=O)[C@H](CC(=O)O)NC(=O)[C@H](CCC(=O)O)NC(=O)[C@H](C)NC(=O)[C@H](Cc1ccccc1)NC(=O)[C@H](CC(N)=O)NC(=O)[C@@H](NC(=O)[C@H](CC(C)C)NC(=O)[C@H](CCCCN)NC(=O)[C@H](CCC(N)=O)NC(=O)[C@H](Cc1c[nH]cn1)NC(=O)[C@H](Cc1c[nH]cn1)NC(=O)[C@@H](NC(=O)[C@H](CCC(=O)O)NC(=O)[C@H](Cc1ccc(O)cc1)NC(=O)CNC(=O)[C@H](CO)NC(=O)[C@H](CC(=O)O)NC(=O)[C@H](Cc1c[nH]cn1)NC(=O)[C@H](CCCNC(=N)N)NC(=O)[C@H](Cc1ccccc1)NC(=O)[C@H](CCC(=O)O)NC(=O)[C@H](C)NC(=O)[C@@H](N)CC(=O)O)C(C)C)C(C)C)C(C)C)C(=O)N[C@@H](CC(N)=O)C(=O)NCC(=O)N[C@@H](CC(N)=O)C(=O)N[C@@H](CCSC)C(=O)N[C@H](C(=O)NCC(=O)NCC(=O)N[C@H](C(=O)N[C@H](C(=O)N[C@H](C(=O)N[C@@H](CC(N)=O)C(=O)O)[C@@H](C)CC)C(C)C)C(C)C)C(C)C,cytotoxicity,reduced cytotoxicity

# — patent US12037375B2, “Protein variant and composition for treating neurodegenerative disease using the same” (KOREA UNIVERSITY RESEARCH AND BUSINESS FOUNDATION, priority 2021, dated 2024)
